These results are taken from US10479979B2, “Method for making and using cold atmospheric plasma stimulated media for cancer treatment” (U.S. Patent Innovations, LLC, priority 2015, dated 2019).

For one data set, the system named is MCF-7 cells. The data set is described as follows: MTT cell viability of MCF-7 cells cultured 72 hours in test media. Format: cell-based, Human. Here is the method:
(§1) As a preliminary step, cancer cells are cultured overnight. For example, the cancer cells may be cultured in an incubator under the standard conditions (a 37° C., 5% (v/v) CO2 and humidified environment) for […]. MTT (3-(4,5-dimethylthiazol-2-yl)-2,5-diphenyltetrazolium bromide), a colorimetric assay (Sigma-Aldrich) was harnessed to qualify the cell viability. The initial media which had been used to culture cancer cells overnight may be discarded prior to treatment with CAPs media. […]
(§2) For each cell line, the protocol was identical. […] Ultimately, according to the standard method, the viability of U87 cells were qualified by MTT test and were read by a H1 microplate reader (Hybrid Technology) at the absorbance of 570 nm.
(§3) The protocols for three cell lines were identical. […] Ultimately, the cell viability was measured.
(§4) The protocol for three cell lines was identical. […] Second, we respectively prepared 2.4 mM specific amino acids rich DMEM by dissolving specific quantities of amino acids powers (Sigma-Aldrich) in DMEM (1% ABS). […]

The test system of a further data set is U87 cells. The data set can be described thus: MTT cell viability of U87 cells cultured 72 hours in test media. Format: cell-based, Human. Here is the method: as §1, §2, §3, §4
Setting [1] is: H2O2 in complete media, nominal 1-100 μM, 72 hours.

Consider `OO` [H2O2, hydrogen peroxide], for which the “resistance to H2O2 rich media” value with MCF-7 cells (setting [1]) and in the data set with U87 cells (setting [1]) was “stronger resistance to H2O2 than MDA-MB-231 cells” each time.
As for `N[C@@H](Cc1c[nH]c2ccccc12)C(=O)O` [tryptophan], the “growth of cancer cells in untreated amino acid rich DMEM (control group, toxicity)” value was “strong resistance to growth of cancer cells” in the data set with MCF-7 cells (2.4 mM, no CAP treatment) and “strong resistance to growth of cancer cells” in the data set on U87 cells (2.4 mM, no CAP treatment).
